In ChEMBL document CHEMBL6121040, “Synthesis and biological assessment of BUB1B inhibitors for the treatment of clear cell renal cell carcinoma” (Eur J Med Chem, 2025):
Calls of active or inactive are those of the source. No cut-off for these calls is given here.

How the values were obtained:
[1] = test system: CAKI-1; test: Cytotoxicity against human CAKI-1 cells assessed as cell viability at 10 uM incubated for 1 day by MTT assay relative to control; type: functional; settings: CAKI-1, 24 h, read-out: Activity
[2] = test system: CAKI-1; test: Cytotoxicity against human CAKI-1 cells assessed as reduction in cell viability incubated for 1 day by MTT assay; type: functional, cell-based; settings: CAKI-1, 24 h
[3] = test system: CAKI-1; test: Cytotoxicity against human CAKI-1 cells assessed as reduction in cell viability incubated for 3 days by MTT assay; type: functional, cell-based; settings: for IC50: CAKI-1, 72 h; for Activity: time 3.0 day
[4] = test system: CAKI-1; test: Induction of apoptosis in human CAKI-1 cells assessed as decrease in Bcl-2 protein level by measuring fold change at 10 uM incubated for 1 day by Western blot analysis (reference value: 1); type: functional
[5] = test system: CAKI-1; test: Induction of apoptosis in human CAKI-1 cells assessed as increase in cleaved caspase-9 protein level at 10 uM incubated for 1 day by Western blot analysis; type: functional, cell-based
[6] = test system: CAKI-1; test: Induction of apoptosis in human CAKI-1 cells assessed as increase in cleaved PARP level by measuring fold change at IC50 concentration incubated for 1 day by Western blot analysis (reference value: 1); type: functional
[7] = test system: CAKI-1; test: Cytotoxicity against human CAKI-1 cells assessed as necrotic cell death incubated for 1 day by LDH assay; type: functional, cell-based; settings: CAKI-1, 24 h
[8] = test system: CAKI-1; test: Cytotoxicity against human CAKI-1 cells assessed as necrotic cell death incubated for 3 days by LDH assay; type: functional, cell-based; settings: CAKI-1, 72 h
[9] = Downregulation of BUB1B protein expression level in human CAKI-1 cells at IC50 concentration incubated for 1 day by Western blot analysis (Rvb =1); type: functional
[10] = test system: CAKI-1; test: Induction of apoptosis in human CAKI-1 cells assessed as increase in cleaved caspase-3 protein level at 10 uM incubated for 1 day by Western blot analysis; type: functional, cell-based
[11] = Cytotoxicity against human MRC5 cells assessed as cell viability at 1 uM incubated for 1 day relative to control; type: toxicity, cell-based; settings: read-out: Activity
[12] = target: T1, Mitotic checkpoint serine/threonine-protein kinase BUB1 beta (Homo sapiens, UniProt O60566); test: Destabilization of BUB1B in human CAKI-1 cells assessed as reduction in BUB1B protein level at 20 uM preincubated for 1 hrs followed by incubation under 45 degreeC for 3 mins by CETSA analysis (reference value: 1); type: cell-based; settings: time 63.0 min
[13] = Cytotoxicity against human HaCaT cells assessed as cell viability at 1 uM incubated for 1 day relative to control; type: toxicity, cell-based; settings: read-out: Activity
[14] = test system: CAKI-1; test: Cytotoxicity against human CAKI-1 cells assessed as cell viability at 10 uM incubated for 3 day by MTT assay relative to control; type: functional; settings: CAKI-1, 72 h, read-out: Activity
[15] = test system: CAKI-1; test: Induction of apoptosis in human CAKI-1 cells assessed as increase in cleaved caspase-8 protein level at 10 uM incubated for 1 day by Western blot analysis; type: functional, cell-based
[16] = test system: CAKI-1; test: Induction of apoptosis in human CAKI-1 cells assessed as increase in cleaved PARP level by measuring fold change at 10 uM incubated for 1 day by Western blot analysis (reference value: 1); type: functional
[17] = Cytotoxicity against human HaCaT cells assessed as cell viability at 5 uM incubated for 1 day relative to control; type: toxicity, cell-based; settings: read-out: Activity
[18] = Downregulation of BUB1B protein expression level in human CAKI-1 cells at 10 uM incubated for 1 day by Western blot analysis (Rvb =1); type: functional
[19] = target: T1, Mitotic checkpoint serine/threonine-protein kinase BUB1 beta; test: Inhibition of recombinant BUB1B (unknown origin) incubated for 60 mins in presence of [gamma-33P]-ATP by microplate scintillation counter analysis
[20] = test system: CAKI-1; test: Induction of apoptosis in human CAKI-1 cells assessed as decrease in Bcl-2 protein level by measuring fold change at IC50 concentration incubated for 1 day by Western blot analysis (reference value: 1); type: functional
[21] = Cytotoxicity against human MRC5 cells assessed as cell viability at 5 uM incubated for 1 day relative to control; type: toxicity, cell-based; settings: read-out: Activity

T1 sequence (O60566 whole entry): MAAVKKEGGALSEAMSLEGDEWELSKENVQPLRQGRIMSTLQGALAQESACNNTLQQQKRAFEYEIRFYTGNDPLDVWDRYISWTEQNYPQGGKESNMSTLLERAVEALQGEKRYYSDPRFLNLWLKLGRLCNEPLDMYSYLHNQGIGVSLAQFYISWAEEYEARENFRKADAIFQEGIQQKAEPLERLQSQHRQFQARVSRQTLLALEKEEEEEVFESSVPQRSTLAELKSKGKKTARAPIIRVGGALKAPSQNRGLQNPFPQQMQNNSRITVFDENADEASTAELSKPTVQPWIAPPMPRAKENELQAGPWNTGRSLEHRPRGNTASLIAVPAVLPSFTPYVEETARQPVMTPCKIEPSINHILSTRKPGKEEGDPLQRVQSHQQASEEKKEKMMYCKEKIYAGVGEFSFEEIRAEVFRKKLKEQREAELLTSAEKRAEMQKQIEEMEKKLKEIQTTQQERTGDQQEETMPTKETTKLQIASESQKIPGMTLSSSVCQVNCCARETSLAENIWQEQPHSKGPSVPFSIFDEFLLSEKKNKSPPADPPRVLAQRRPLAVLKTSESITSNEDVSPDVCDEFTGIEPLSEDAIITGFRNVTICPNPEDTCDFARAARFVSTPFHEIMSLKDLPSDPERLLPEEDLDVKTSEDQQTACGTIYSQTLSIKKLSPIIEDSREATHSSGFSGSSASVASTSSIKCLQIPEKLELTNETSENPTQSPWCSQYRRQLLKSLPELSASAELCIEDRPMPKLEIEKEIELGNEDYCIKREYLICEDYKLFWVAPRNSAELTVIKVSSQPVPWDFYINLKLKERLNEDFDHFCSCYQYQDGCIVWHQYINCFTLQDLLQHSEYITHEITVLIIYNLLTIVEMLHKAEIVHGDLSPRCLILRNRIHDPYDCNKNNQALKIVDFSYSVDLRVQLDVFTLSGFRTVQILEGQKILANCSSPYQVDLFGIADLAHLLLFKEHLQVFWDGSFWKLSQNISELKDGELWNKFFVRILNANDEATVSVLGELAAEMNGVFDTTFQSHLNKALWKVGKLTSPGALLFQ

Work on COc1cccc(Nc2ncc(C)c(Nc3cccc(S(=O)(=O)NC(C)(C)C)c3)n2)c1OC yielded a viability at 10 µM [1] of 78%.

COc1cc(Nc2ncc(C)c(Nc3cccc(S(=O)(=O)NC(C)(C)C)c3)n2)cc(OC)c1 showed a viability at 10 µM [1] of 46.5% and an IC50 [2] of 2790 nM.

Cc1cn(-c2cc(Nc3ncc(C)c(Nc4cccc(S(=O)(=O)NC(C)(C)C)c4)n3)cc(C(F)(F)F)c2)cn1 gave a viability at 10 µM [1] of 49.6%.

In the case of COc1cc(Nc2ncc(C)c(Nc3cccc(S(=O)(=O)NC4CCC4)c3)n2)cc(OC)c1, the viability at 10 µM [1] is reported as 42%.

COc1ccc(Nc2ncc(C)c(Nc3cccc(S(=O)(=O)NC(C)(C)C)c3)n2)cc1OC showed a viability at 10 µM [1] of 36.6%.

For COc1ccc(S(=O)(=O)N2CCN(c3ccc(Nc4ncc(C)c(Nc5cccc(S(=O)(=O)NC(C)(C)C)c5)n4)cc3)CC2)cc1OC, the viability at 10 µM [1] was 73.8%.

For Cc1cnc(Nc2ccc(N3CCN(C)CC3)cc2)nc1Nc1cccc(S(=O)(=O)NC(C)(C)C)c1, the viability at 10 µM [1] was 43.6%, the IC50 [3] was 1100 nM and the Activity [3] was “Dose-dependent-effect”. For the same molecule, the “fold change (FC)” value [4] was 0.28, the Activity [5] was “Active” and the “fold change (FC)” value [6] was 2.65. For the same molecule, the IC50 [7] was 23.9 µM, the EC50 [8] was 6.6 µM and the “fold change (FC)” value [9] was 0.14. For the same molecule, the Activity [10] was “Active”, the viability at 24 h, 1 µM [11] was 107% and the fold change (FC) [12] was 2.19. For the same molecule, the viability at 24 h, 1 µM [13] was 76.4%, the viability at 10 µM [14] was 18.9% and the Activity [15] was “Active”. The “fold change (FC)” value [16] was 24.35, the IC50 [2] was 1500 nM and the viability at 24 h, 5 µM [17] was 39.4%. The “fold change (FC)” value [18] was 0.02, the IC50 [19] was 67.3 µM and the “fold change (FC)” value [20] was 0.62. For the same molecule, the viability at 24 h, 5 µM [21] was 38.8%.

With CNC(=O)N1CCN(c2ccc(Nc3ncc(C)c(Nc4cccc(S(=O)(=O)NC(C)(C)C)c4)n3)cc2)CC1 the viability at 10 µM [1] was 40.6%.

With C=CC(=O)N1CCN(c2ccc(Nc3ncc(C)c(Nc4cccc(S(=O)(=O)NC(C)(C)C)c4)n3)cc2)CC1 the viability at 10 µM [1] was 44.6%.

Cc1cnc(Nc2ccc(OCc3cccc(F)c3)c(Cl)c2)nc1Nc1cccc(S(=O)(=O)NC(C)(C)C)c1 showed a viability at 10 µM [1] of 96.1%.

COc1cc(Nc2ncc(C)c(Nc3cccc(S(=O)(=O)N4CCOCC4)c3)n2)cc(OC)c1 gave a viability at 10 µM [1] of 45.4%.

With C#CCN1CCN(c2ccc(Nc3ncc(C)c(Nc4cccc(S(=O)(=O)NC(C)(C)C)c4)n3)cc2)CC1 the viability at 10 µM [1] was 41.2%.

For Cc1ccc(Nc2ncc(C)c(Nc3cccc(S(=O)(=O)NC(C)(C)C)c3)n2)cc1Nc1nc(-c2cccnc2)cs1, the viability at 10 µM [1] was 43.5%.

Molecule Cc1cc(NS(=O)(=O)c2ccc(Nc3ncc(C)c(Nc4cccc(S(=O)(=O)NC(C)(C)C)c4)n3)cc2)no1 has a viability at 10 µM [1] of 95.5%.

Cc1cnc(Nc2ccc(N3CCN(C(=O)N4CCCC4)CC3)cc2)nc1Nc1cccc(S(=O)(=O)NC(C)(C)C)c1 showed a viability at 10 µM [1] of 43.1%.

With COc1cc(Nc2ncc(C)c(Nc3cccc(S(=O)(=O)N4CCOCC4)c3)n2)cc(OC)c1OC the viability at 10 µM [1] was 35.8%, the IC50 [3] was 2900 nM and the Activity [3] was “Dose-dependent-effect”. For the same molecule, the “fold change (FC)” value [4] was 0.64, the Activity [5] was “Active” and the “fold change (FC)” value [6] was 3.76. For the same molecule, the EC50 [8] was 41.2 µM, the “fold change (FC)” value [9] was 0.22 and the Activity [10] was “Active”. For the same molecule, the viability at 24 h, 1 µM [11] was 89.2%, the fold change (FC) [12] was 0.65 and the viability at 24 h, 1 µM [13] was 105%. The viability at 10 µM [14] was 38.5%, the Activity [15] was “Active” and the “fold change (FC)” value [16] was 10.69. The IC50 [2] was 1830 nM, the viability at 24 h, 5 µM [17] was 75.3% and the “fold change (FC)” value [18] was 0.12. For the same molecule, the IC50 [19] was 9.67 µM, the “fold change (FC)” value [20] was 0.5 and the viability at 24 h, 5 µM [21] was 70.6%.

For Cc1cnc(Nc2ccc(N3CCN(C(=O)Nc4ccccc4F)CC3)cc2)nc1Nc1cccc(S(=O)(=O)NC(C)(C)C)c1, the viability at 10 µM [1] was 46.7%.

In the case of Cc1cnc(Nc2ccc(N3CCN(C(=O)Nc4ccccc4C(F)(F)F)CC3)cc2)nc1Nc1cccc(S(=O)(=O)NC(C)(C)C)c1, the viability at 10 µM [1] is reported as 39.7%.

In the case of Cc1cnc(Nc2ccc(N3CCN(C(=O)N(C)C)CC3)cc2)nc1Nc1cccc(S(=O)(=O)NC(C)(C)C)c1, the viability at 10 µM [1] is reported as 36.2%.

Molecule Cc1cnc(Nc2ccc(OCCCN3CCOCC3)cc2)nc1Nc1cccc(S(=O)(=O)NC(C)(C)C)c1 has a viability at 10 µM [1] of 41.9%.
